Source: patent US20160251402A1, “MICROPEPTIDES AND USE OF SAME FOR MODULATING GENE EXPRESSION” (UNIVERSITE PAUL SABATIER TOULOUSE III, priority 2013, published 2016)
Entries after “also recorded” stand apart in the source; their conditions may differ.

How the values were obtained:
AtmiR319a [1] = assay: Accumulation of AtmiR319a in the model plant of tobacco; type: in vivo, Nicotiana benthamiana; conditions: tobacco expressing AtmiR319a, overexpression of AtmiORF319a
Procedure: (§1) At present, AtmiPEP165a and AtmiPEP319a2, identified in Arabidopsis thaliana, have already been characterized.
(§2) The total RNA was extracted from roots of M. truncatula or from tobacco leaves using the extraction kit RNeasy Plant Mini Kit (Qiagen). The reverse transcription was performed using the reverse transcriptase SuperScript II (Invitrogen) starting from 500 ng of total RNA. Three repetitions (n=3) were carried out, each with two technical repetitions. Each experiment was repeated from two to three times. The amplifications by qPCR were carried out using a LightCycler 480 System thermocycler (Roche Diagnostics) by the method described in Lauressergues et al. (Plant J., 72(3): 512-22, 2012).
(§3) For the miPEPs 165a and 319a, the corresponding miORFs were cloned into pBIN19 by the method described in Combier et al. (Genes & Dev, 22: 1549-1559, 2008).
(§4) The composite plants having roots transformed with Agrobacterium rhizogenes were obtained by the method described in Boisson-Dernier et al. (Mol Plant-Microbe Interact, 18: 1269-1276, 2005). The transformed roots were verified and selected by observations of DsRED with a binocular fluorescence magnifier. The control roots correspond to roots transformed with A. rhizogenes not containing the pPEX-DsRED vector. Transformation of the tobacco leaves was carried out by the method described in Combier et al. (Genes & Dev, 22: 1549-1559, 2008).

AtmiR160b = assay: Relative expression of AtmiR160b in A. thaliana; type: in vivo, Arabidopsis thaliana; conditions: plant in which AtmiPEP160b1 is overexpressed vs control plant
MtmiR171e = assay: Relative expression of MtmiR171e in M. truncatula; type: in vivo, Medicago truncatula; conditions: plant in which MtmiPEP171e is overexpressed vs control plant
Procedure: as §2, §4

AtmiR319a [2] = assay: Relative expression of AtmiR319a in A. thaliana (qRT-PCR); type: in vivo, Arabidopsis thaliana; conditions: plant in which AtmiPEP319a1 is overexpressed vs control plant
Arabidopsis thaliana = assay: Plant growth of Arabidopsis thaliana after 3 weeks of watering; type: in vivo; conditions: watered with 0.1 μM of synthetic peptide, 3 weeks of growth, vs water
AtmiR164a [3] = assay: Northern blot of AtmiR164a in A. thaliana roots; type: in vivo, Arabidopsis thaliana; conditions: 0.1 μM synthetic peptide dissolved in water vs water; U6 loading control
Procedure: Northern blot analysis was carried out according to the protocol described in Lauressergues et al. Plant J., 72(3): 512-22, 2012.
The biological samples were homogenized in a buffer containing 0.1 M of NaCl, 2% of SDS, 50 mM of Tris-HCl (pH 9), 10 mM of EDTA (pH 8) and 20 mM of mercaptoethanol, and the RNA was extracted twice with a phenol/chloroform mixture and was precipitated with ethanol.
The RNA was loaded on PAGE 15% gel and transferred to a nylon membrane (HybondNX, Amersham). RNA was hybridized with a radioactive oligonucleotide probe labelled at its end, in order to detect the RNA U6 or for miR164a.
The hybridizations were carried out at 55° C. The hybridization signals were quantified using a phosphorimager (Fuji) and normalized with the signal of the specific probe of RNA U6.

AtmiR164a [4] = assay: Relative expression of AtmiR164a in A. thaliana (qRT-PCR); type: in vivo, Arabidopsis thaliana; conditions: plant watered once a day with peptide at 0.1 μM vs control plant
[5] = test system: Arabidopsis thaliana root growth; assay: Root growth in Arabidopsis thaliana; type: in vivo; conditions: plant treated with AtmiPEP165a vs control plant of the same age
PHABOLUSA: PHB = assay: Expression of PHABOLUSA (PHB) in roots of A. thaliana; type: in vivo, Arabidopsis thaliana; conditions: roots treated with 0.01, 0.1, 1 or 10 μM peptide vs water
AtmiR165a [6] = assay: Accumulation of AtmiR165a in the model plant of tobacco; type: in vivo, Nicotiana benthamiana; conditions: tobacco expressing AtmiR165a, overexpression of AtmiORF165a
Procedure: as §1, §2, §3, §4

AtmiR165a [7] = assay: Northern blot of AtmiR165a in A. thaliana roots; type: in vivo, Arabidopsis thaliana; conditions: 0.1 μM synthetic peptide dissolved in water vs water; U6 loading control
REVOLUTA: REV = assay: Expression of REVOLUTA (REV) in roots of A. thaliana; type: in vivo, Arabidopsis thaliana; conditions: roots treated with 0.01, 0.1, 1 or 10 μM peptide vs water
AtmiR165a [8] = assay: Accumulation of AtmiR165a in roots of A. thaliana (relative expression); type: in vivo, Arabidopsis thaliana; conditions: roots treated with 0.01, 0.1, 1 or 10 μM peptide vs water
PHAVOLUTA: PHV = assay: Expression of PHAVOLUTA (PHV) in roots of A. thaliana; type: in vivo, Arabidopsis thaliana; conditions: roots treated with 0.01, 0.1, 1 or 10 μM peptide vs water
pri-miR165a [9] = assay: Relative expression of pri-miR165a in A. thaliana (Col-0 and nrpb2-3); type: in vivo, Arabidopsis thaliana
Excerpt: Moreover, to determinate the mode of action of miPEPs regarding the accumulation of their own miRs, the expression of pri-miR165a has been analysed in wildtype plants and in plants that have been transformed to overexpress miPEP165a (FIG. 35).
Moreover, the expression of pri-miR165a has been analysed in wildtype plants (Col-0 plants) and in mutated plants having a low allele of the second large subunit of RNA polymerase II (nrpb2-3 plants). […] It appears that the miPEP operates as a transcription regulator.
as §2

pri-miR165a [10] = assay: RNA stability of pri-miR165a in the presence of cordycepin; type: in vivo, Arabidopsis thaliana; conditions: in the presence of cordycepin (inhibitor of RNA synthesis), peptide at 10 μM
Procedure: For each condition, two week old plants that have been cultivated vertically on solid MS medium have been transferred in 6-well plates containing 1 ml of liquid MS medium. […] Each indivual experiment has been made 3 times.

MtmiR169d = assay: Relative expression of MtmiR169d in M. truncatula; type: in vivo, Medicago truncatula
Procedure: as §2

DmmiR8 = assay: Relative expression of Pre-miR8 in transfected Drosophila melanogaster cells; type: cell-based
Procedure: S2 cells are cultured in a T75 flask in 12 mL of Schneider's medium (GIBCO), containing 1% of penicillin 100 U/mL and […] (Sigma) and 10% of decomplemented foetal calf serum (30 min at 56° C.). The transient transfections are carried out using the FuGENE® HD transfection kit (Roche), according to the recommendations. Conventionally, 1.5 million S2 cells, previously seeded in 6-well plates (3 ml of medium per well), are transfected with 250 ng of total plasmid DNA. The DNA is brought into contact with the Fugene (3 μl) in 100 μl of OPTIMEM (GIBCO). After 20 minutes, the transfection reagent formed is brought into contact with the cells in the culture medium. The RNA of the cells is extracted 66 h after transfection.

MFQTLYLFIYIHTNILLLS (listed as Arabidopsis thaliana) [AtmiPEP319a2]
accumulation of AtmiR319a (AtmiR319a [1]): increase in the accumulation

MFSPQ (listed as Arabidopsis thaliana) [AtmiPEP160b1]
relative expression of AtmiR160b (AtmiR160b): increase in the relative expression of AtmiR160b; also recorded: induces an accumulation of AtmiR160b

MMVFGKPKKAMLVRFNPKTDLHV (listed as Medicago truncatula) [MtmiPEP171e]
relative expression of MtmiR171e (MtmiR171e): increase in the relative expression of MtmiR171e; also recorded: induces an accumulation of MtmiR171e

MNIHTYHHLLFPSLVFHQSSDVPNALSLHIHTYEYIIVVIDPFRITLAFR [AtmiPEP319a1]
relative expression of AtmiR319a (AtmiR319a [2]): increase in the accumulation of AtmiR319a; also recorded: increase in the relative expression of AtmiR319a; also recorded: increase in the accumulation of miR319a
plant growth (Arabidopsis thaliana): increases plant growth significantly

MPSWHGMVLLPYVKHTHASTHTHTHNIYGCACELVFH [AtmiPEP164a1]
accumulation of AtmiR164a (Northern blot) (AtmiR164a [3]): increase in the accumulation of miR164a
relative expression of AtmiR164a (AtmiR164a [4]): increase in the relative expression of AtmiR164a
plant growth (Arabidopsis thaliana): increases plant growth significantly

MRVKLFQLRGMLSGSRIL (listed as Arabidopsis thaliana) [AtmiPEP165a]
root growth phenotype [5]: greatly accelerated root growth
relative expression of PHB (PHABOLUSA: PHB): negative regulation of its target genes
accumulation of AtmiR165a (AtmiR165a [6]): increase in the accumulation
accumulation of AtmiR165a (Northern blot) (AtmiR165a [7]): increase in the accumulation of miR165a
relative expression of REV (REVOLUTA: REV): negative regulation of its target genes
relative expression of AtmiR165a (AtmiR165a [8]): dose-dependent effect of the accumulation of AtmiR165a
relative expression of AtmiR165a (AtmiR165a [8]; listed as miPEP165a): dose-dependent effect on the accumulation of miR165a
relative expression of PHV (PHAVOLUTA: PHV): negative regulation of its target genes
relative expression of pri-miR165a (pri-miR165a [9]; nrpb2-3 mutated plants vs wildtype (Col-0), water or peptide at 10 μM): not capable of accumulating AtmiR165a in response to AtmiPEP165a
relative expression of pri-miR165a (pri-miR165a [9]; nrpb2-3 mutated plants vs wildtype (Col-0), water or peptide at 10 μM, listed as miPEP165a): mutated plants do not show an increase in the accumulation of pri-miR165 in response to miPEP165a
expression of pri-miR165a (pri-miR165a [9]; plants that overexpress miPEP165a vs wildtype plants): enhanced
relative expression of pri-miR165a (pri-miR165a [9]; roots watered once a day with peptide at 10 μM vs control roots): increase in the relative expression of AtmiR165a
stability of pri-miR165a (pri-miR165a [10]): does not induce a better stability of pri-miR165a
stability of pri-miR165a (pri-miR165a [10]; listed as miPEP165a): does not operate as a RNA stabilizer, but rather as a transcription activator of pri-miR165a

MVKESFMERLKVR (listed as Medicago truncatula) [MtmiPEP169d]
accumulation of MtmiR169d (MtmiR169d; overexpression of the miPEP in M. truncatula (as worded in Example 1B)): induces an accumulation of MtmiR169d
relative expression of MtmiR169d (MtmiR169d; plant watered once a day with peptide at 0.1 μM vs control plant): increase in the relative expression of MtmiR169d

B1: MEPGFVFVLFPTHLSTQHTQREKSILVMGLNLQSAKQSDKQNSKERKKNTQINSQRIPYRQGGQCSKVLSP (peptide)
chain: MEPGFVFVLFPTHLSTQHTQREKSILVMGLNLQSAKQSDKQNSKERKKNTQINSQRIPYRQGGQCSKVLSP
modifications: Drosophila melanogaster
relative expression of Pre-miR8 (DmmiR8; cells overexpressing DmmiPEP8 vs miPEP8 with mutated start codons): increases the expression of DmmiR8
relative expression of Pre-miR8 (DmmiR8; cells overexpressing wild-type DmmiR8 vs DmmiR8 with mutated miPEP8 start codons): increases the expression of DmmiR8
